Test system: TLR9
Experiment: TLR9-induced IFNalpha in human PBMC (CpG2216, AlphaLISA)
Assay type: cell-based
Settings: read-out: TLR9-ligand induced IFNα in human PBMC IC50
Experimental: 2.4 Determination of TLR9-Induced IFNalpha in Human Peripheral Blood Mononuclear Cells (PBMCs) and Isolated Plasmacytoid Dendritic Cells (pDCs)
Human blood (ca. 75 ml) was collected in 10 S-Monovette tubes containing Heparin (S-Monovette 7.5 mL NH Heparin 16 IU/mL blood; Starstedt). Leucosep™ tubes (30 mL #227290; Greiner Bio-one) were prepared by addition of 15 ml lymphocyte separation medium LSM1077™ per tube (#J15-004; PAA Laboratories) and centrifugation for 30 sec at 1000 g. Some 25 ml blood was transferred to Leucosep™ tubes following dilution with equal parts of PBS (without Ca2+/Mg2+; #14190-094). […] The PBMC were counted using a Countess® Automated cell counter (sample was pre-diluted 1:10 in Media, prior to the addition of equal volume (10 μl) of Trypan Blue). […]
Compounds were pre-diluted in 100% v/v DMSO (#41640-100 mL; Sigma-Aldrich), followed by transfer in Media (to achieve a final DMSO concentration of 0.25%). […] Plates were briefly centrifuged (200×g for 2 min at 22° C.) and supernatant samples (30 μl) removed for quantification of IFNα levels.
For quantification of IFNalpha the human interferon AlphaLISA Kit (#AL264F) from PerkinElmer was used. […] Data were collected for analysis and quantification of IFNα levels.
Data were analysed using Excel XL fit 4.0 (Microsoft) with XLfit add-in (IDBS; version 4.3.2). […]

- IC50: 109 nM
Compound: CCC(=O)N1CC[C@H](Nc2ncnc3c2CN(c2cnc(OC)c(C(F)(F)F)c2)CC3)C1 [Example 67, 1-{(S)-3-[6-(6-Methoxy-5-trifluoromethyl-pyridin-3-yl)-5,6,7,8-tetrahydro-pyrido[4,3-d]pyrimidin-4-ylamino]-pyrrolidin-1-yl}-propan-1-one]
